Results taken from paper PMC11187260, “Unraveling the interconversion pharmacokinetics and oral bioavailability of the major ginger constituents: [6]-gingerol, [6]-shogaol, and zingerone after single-dose administration in rats” (Frontiers in Pharmacology, 2024).
Where two headings read alike, the source gives them in different places.

What was measured:
[1] = Percent recovery in urine and feces after intravenous or oral administration; type: in vivo, Female Sprague Dawley rats; details: for dose excreted: female, Sprague Dawley, rat, % of administered dose
Experimental: (§1) This study is composed of two sections; the first section involves an investigation of the interconversion pharmacokinetics of the pure compounds, and the second focuses on tissue distribution. All rats were transferred to metabolic cages and fasted overnight for at least 10 h. The animals were then randomly divided into four groups (6 rats/group) to receive a single intravenous (i.v.) administration of either 6G, 6S, zingerone, or vehicle via the lateral tail vein at a dosage of 3 mg/kg. After a 7-week washout period, the rats received 30 mg/kg of the same test compounds through a single oral (p.o.) administration. Following each administration, blood samples (300 µL) were collected in heparinized tubes from the lateral tail vein (while rats were under anesthesia with isoflurane) at specified time points: 0.083, 0.25, 0.5, 1, 1.5, 2, 3, 4, 6, 8, and 24 h after administration. An additional 1 mL of blood sample was collected from each rat at pre-dose (0 h) and post-dose (24 h) for clinical laboratory testing and safety evaluation. All heparinized blood samples were initially centrifuged at 5,000 × g, 4 °C, for 10 min. Subsequently, the plasma was carefully transferred to a cryotube as an aliquot sample and then stored at −40 °C until analysis. Urine and feces were collected during the intervals of 0–24 h and 24–48 h post-dosing, and their weights and volumes were documented. All collected urine and feces samples were stored at −40 °C until analysis.
(§2) Urine samples were centrifuged, and 50 µL of urine was extracted with 200 µL of 100% methanol. The mixture was vortexed for 10 min and subsequently centrifuged at 14,000 × g at 4 °C for 10 min. Feces and organs were weighed and homogenized with methanol (50:50% w/v). The supernatants of the extracted urine, feces, and organs were also filtered through a […] PVDF membrane (Chrome Tech, MN, USA) before analysis.
(§3) Investigation of glucuronide conjugations followed a previously published method with some modification ([Wang et al., 2017]; [Songvut et al., 2023]). A 50 μL aliquot of plasma, urine, or feces sample was incubated at 37 °C for a minimum of 30 min with 50 μL of β-glucuronidase (3,000 U/mL) in a sodium phosphate buffer (pH 6.8). For sample extraction, 150 μL of methanol containing 50 μg/L of IS was pipetted into the pre-incubated samples. Subsequently, the mixtures were vortexed for 10 min and then centrifuged at 14,000 × g at 4 °C for 10 min. The supernatants were filtered through a […] PVDF membrane (Chrome Tech, MN, United States) and then analyzed using the validated LC-MS/MS method.
(§4) Plasma concentration-time profiles were plotted using GraphPad Prism 9.3.0 (GraphPad Software, USA). The absolute oral bioavailability was calculated as follows: F = (AUC p.o./dose p.o.)/(AUC i.v./dose i.v.). The percentage recovery of each administered compound was calculated as the total amount of the drug found in urine or feces divided by the administered dose. The tissue-to-plasma concentration ratios (K p) were calculated by dividing the concentration in the tissue by the corresponding plasma concentration at the respective sampling time point.

[2] = Safety evaluation: physical appearance and blood chemistry after single i.v. or p.o. dose; type: in vivo, Female Sprague Dawley rats; details: for ALP / ALT / AST / BUN / Creatinine: post-dose (24 h), mean ± SD n=6; for Physical appearance: post-dose
Experimental: as §1
Plasma samples were collected at baseline (T0) and T24 h for the determination of blood chemistry, including levels of blood urea nitrogen (BUN), creatinine, aspartate transaminase (AST), alanine transaminase (ALT), and alkaline phosphatase (ALP). The analyses were conducted by the Exclusive Veterinary Professional Laboratory Center (Bangkok, Thailand). The creatinine level was determined using an enzymatic oxidase assay, while AST and ALT levels were determined using the procedure of the International Federation of Clinical Chemistry (IFCC) without pyridoxal phosphate activation.

[3] = Pharmacokinetics and oral bioavailability after single oral administration (30 mg/kg), plasma LC-MS/MS; type: in vivo, Female Sprague Dawley rats; details: for bioavailability / AUC(0-inf) / AUC(0-t) / Tmax: plasma, 30 mg/kg; for AUC(0-t): read-out: AUC(0-t); for Tmax: median [IQR]
Experimental: as §1
Plasma samples were processed through protein precipitation. In brief, 50 µL of plasma was mixed with 200 µL of methanol containing 50 ng/mL of IS (dihydrocapsaicin). The mixtures were vortexed and centrifuged at 14,000 × g at 4 °C for 10 min. The supernatant was filtered through a […] PVDF membrane (Chrome Tech, MN, USA) before analysis.
as §3
Quantitative analysis was conducted using liquid chromatography-tandem mass spectrometry (LC-MS/MS) with a Nexera X2 LCMS-8060NX instrument (Shimadzu, Japan). The instrument included a CBM-40lite system controller, CTO-40C column oven, SIL-40C XR autosampler, LC-40D XR solvent pump unit, FCV-DGU-403 degasser, and 20AH2 switching valve. The LC-MS/MS system was operated with a binary pump and equipped with a triple quadrupole mass spectrometer.
Pharmacokinetic parameters were assessed using PK Solutions software (version 2.0) with non-compartmental analysis. The AUC was calculated using the Linear-Log Trapezoidal Method. The maximum plasma concentration (Cmax) and time to reach maximum plasma concentration (Tmax) were taken directly from the graph.
as §4

[4] = Tissue distribution after single oral administration (30 mg/kg); type: in vivo; details: 1–2 h after oral 30 mg/kg
Experimental: Tissue distribution analysis was carried out after a 7-week washout period following the completion of the pharmacokinetic study. The animals received a single oral administration of either 6G, 6S, zingerone, or vehicle at a dosage of 30 mg/kg. Euthanasia was performed using an overdose of isoflurane (>10%) in an induction chamber, either one or 2 h after oral gavage (3 rats/timepoint), and death was confirmed by exsanguination. Subsequently, the stomach, small intestine, liver, large intestine, kidneys, heart, lung, hippocampus, cortex, spleen, ovaries, and spinal cord were collected. The dissected organs were thoroughly cleaned with a cold normal saline solution and the connective tissue was removed. The organs were then precisely weighed before being stored at −40 °C. All processes during tissue collection were performed on ice.
as §2, §4

[5] = female, Sprague-Dawley, rat, po, plasma analyte after [6]-gingerol p.o. 30 mg/kg, mean ± SD n=6
[6] = female, Sprague-Dawley, rat, po, plasma analyte after zingerone p.o. 30 mg/kg, mean ± SD n=6

## COc1cc(CCC(C)=O)ccc1O [zingerone, 4-(4-hydroxy-3-methoxyphenyl)-2-butanone]
[1]; during 24–48 h
  parent compound recovered in urine: less than 1%
[1]; feces, iv, 3 mg/kg, intravenous administration 3 mg/kg of parent compound, read-out: % Recovery excretion, feces T 0–24 h
  dose excreted: 0.049 ± 0.027%
[1]; feces, iv, 3 mg/kg, intravenous administration 3 mg/kg of parent compound, read-out: % Recovery excretion, feces T 24–48 h
  dose excreted: 0.002 ± 0.001%
[1]; feces, po, 30 mg/kg, oral administration 30 mg/kg of parent compound, read-out: % Recovery excretion, feces T 0–24 h
  dose excreted: 0.004 ± 0.003%
[1]; feces, po, 30 mg/kg, oral administration 30 mg/kg of parent compound, read-out: % Recovery excretion, feces T 24–48 h
  dose excreted: 0.057 ± 0.017%
[1]; urine, iv, 3 mg/kg, intravenous administration 3 mg/kg of parent compound, read-out: % Recovery excretion, urine T 0–24 h
  dose excreted: 0.184 ± 0.286%
[1]; urine, iv, 3 mg/kg, intravenous administration 3 mg/kg of parent compound, read-out: % Recovery excretion, urine T 24–48 h
  dose excreted: < 0.001%
[1]; urine, po, 30 mg/kg, oral administration 30 mg/kg of parent compound, read-out: % Recovery excretion, urine T 0–24 h
  dose excreted: 0.049 ± 0.032%
[1]; urine, po, 30 mg/kg, oral administration 30 mg/kg of parent compound, read-out: % Recovery excretion, urine T 24–48 h
  dose excreted: < 0.001%
[1]; within 48 h after intravenous or oral administration
  unchanged form in fecal excretion: < 0.1%
[2]; i.v. 3 mg/kg
  ALP: 48.50 ± 14.00 U/L
  ALT: 28.50 ± 5.82 U/L
  AST: 64.17 ± 11.05 U/L
  BUN: 14.17 ± 1.33 mg/dL
  Creatinine: 0.70 ± 0.03 mg/dL
  Physical appearance: Normal
[2]; p.o. 30 mg/kg
  ALP: 35.83 ± 8.38 U/L
  ALT: 19.33 ± 2.50 U/L
  AST: 53.83 ± 6.88 U/L
  BUN: 9.83 ± 1.47 mg/dL
  Creatinine: 0.75 ± 0.02 mg/dL
  Physical appearance: Normal
[2]; single i.v. 3 mg/kg or p.o. 30 mg/kg
  Tolerability: exhibited tolerance
[3]; after 6S administration (route not given)
  plasma detection of zingerone after 6S administration: not detected
[3]; female, Sprague-Dawley, rat, po, p.o. 30 mg/kg vs i.v. 3 mg/kg of the pure compound, mean ± SD n=6, read-out: %Oral bioavailability
  bioavailability: 0.75 ± 0.52%
[3]; female, Sprague-Dawley, rat, po, p.o. 30 mg/kg vs i.v. 3 mg/kg of the pure compound, range among rats, read-out: %Oral bioavailability (range)
  bioavailability: 0.32 to 1.6%
[3]; female, Sprague-Dawley, rat, po, p.o. 30 mg/kg vs i.v. 3 mg/kg, pure compounds, read-out: absolute oral bioavailability (upper bound)
  bioavailability: < 2%
[3]; [5]
  AUC(0-inf): 28 ± 7.4 ng·h/mL
  AUC(0-t): 28 ± 7.4 ng·h/mL
[3]; female, Sprague-Dawley, rat, po, plasma analyte after [6]-gingerol p.o. 30 mg/kg
  Tmax: 15 min
[3]; [6]
  AUC(0-inf): 950 ± 373 ng·h/mL
  AUC(0-t): 944 ± 348 ng·h/mL
  Cmax: 1870 ± 604 ng/mL
[3]; female, Sprague-Dawley, rat, po, plasma analyte after zingerone p.o. 30 mg/kg
  Tmax: 4.8 min
[3]; following oral administration
  presence of parent compound in plasma: up to 4 h
[3]; oral administration of pure compound
  time to detectable plasma levels: ≤ 5 min
[3]; parent compound after oral administration 30 mg/kg
  time to reach peak plasma concentration (Cmax): 5 to 45 min
[4]
  distribution to brain regions (hippocampus and cortex): higher concentrations
  tissue-to-plasma ratios (rank among compounds): highest
